Measured values from patent US20120022142A1, “RNA Interference Mediated Inhibition of Signal Transducer and Activator of Transcription 1 (STAT1) Gene Expression Using Short Interfering Nucleic Acid (siNA)” (Merck Sharp & Dohme Corp., priority 2009, published 2012).
[invAb] = inverted abasic unit; m = 2'-O-methyl; r = 2'-OH (RNA); f = 2'-fluoro

Key:
STAT1 mouse mRNA = experiment: Initial screen of siNAs: STAT1 mRNA knock-down in NIH 3T3 cells (96-well transfection, Taqman RT-PCR); assay type: cell-based; conditions: 10 nM siNA, 24 hrs, normalized against GAPDH, average of 2 experiments
Procedure: NIH 3T3 (mouse; ATCC cat# CRL-1658): Cells were cultured at 37° C. in the presence of 5% CO2 and grown in Dulbecco's modified Eagle's medium (DMEM) with 4 mM L-glutamine adjusted to contain 1.5 g/L sodium bicarbonate and 4.5 g/L glucose and supplemented with fetal bovine serum at a final concentration of 10%, 100 μg/mL of streptomycin, and 100 U/mL penicillin.
(§1) Cells were plated in all wells of a tissue-culture treated, 96-well plate at a final count of 5000 cells/well in 100 μL of the appropriate culture media. The cells were cultured for 24 hours after plating at 37° C. in the presence of 5% CO2.
(§2) After 24 hours, complexes containing siNA and RNAiMax were created as follows: A solution of RNAiMax diluted 33-fold in OPTI-MEM was prepared. In parallel, solutions of the siNAs for testing were prepared to a final concentration of 120 nM in OPTI-MEM. After incubation of RNAiMax/OPTI-MEM solution at room temperature for 5 min, an equal volume of the siNA solution and the RNAiMax solution were added together for each of the siNAs.
(§3) This solution was incubated at room temperature for 20 minutes. After incubation, 20 uL of the solution was added to each of the relevant wells. The final concentration of siNA in each well was 10 nM and the final volume of RNAiMax in each well was 0.3 ul.
(§4) The time of incubation with the RNAiMax-siNA complexes was 24 hours and there was no change in media between transfection and harvesting, unless otherwise indicated.
(§5) RNA was extracted from a 96-well plate using the TaqMan® Gene Expression Cells-to-CT™ Kit (Cat# 4399002) with a modified protocol. Briefly, a 60 uL (1 plate) or 110 uL (2 plates) of the Lysis Solution with DNase I was dispensed into each well of the Lysis Buffer Plate (twin.tec full skirt plate). The lysis buffer and stop plates were stored at 4° C. until the cells were washed.
(§6) The culture medium was aspirated and discarded from the wells of the culture plate. 50 uL of chilled DPBS was added to each well, then aspirated and discarded. The lysis was performed automatically using a BioMek FX instrument and method. After the Biomek method was completed, the lysis plate was incubated for 2 min at room temperature. The lysis plate can be stored for 2 hours at 4° C., or at −20° C. or −80° C. for two months.
(§7) Each well of the reverse transcription plate required 10 uL of 2× reverse transcriptase Buffer, 1 uL of 20× reverse transcription enzyme and 2 uL of nuclease-free water. The reverse transcription master mix was prepared by mixing 2× reverse transcription buffer, 20× reverse transcription enzyme mix, and nuclease-free water. 13 uL of the reverse transcription master mix was dispensed into each well of the reverse transcription plate (semi-skirted). A separate reverse transcription plate was prepared for each cell plate. The plate was loaded onto a Biomek NX or Biomek FX Dual-96 and the Biomek method was run. The program is programmed to automatically added 7 uL of lysate from the cell lysis procedure described above into each well of the reverse transcription plate. The plate is sealed and spun on a centrifuge (1000 rpm for 30 seconds) to settle the contents to the bottom of the reverse transcription plate. The plate is placed in a thermocycler at 37° C. for 60 min, 95° C. for 5 min, and 4° C. until the plate is removed from the thermocycler. Upon removal, if not used immediately, the plate was frozen at −20° C.
(§8) A series of probes and primers were used to detect the various mRNA transcripts of the genes of β-Actin (human cell line only), and of STAT1 and GAPDH in mouse and human cell lines. All Taqman probes and primers for the experiments here-in described were supplied as pre-validated sets by Applied Biosystems, Inc. (see Table 2).
The assays were performed on an ABI 7900 instrument, according to the manufacturer's instructions. […]

STAT1 human mRNA = experiment: Initial screen of siNAs: STAT1 mRNA knock-down in A549 cells (96-well transfection, Taqman RT-PCR); assay type: cell-based; conditions: 10 nM siNA, 24 hrs, normalized against GAPDH, average of 2 experiments
Procedure: A549 (human; ATCC cat# CCL-185): Cells were cultured at 37° C. in the presence of 5% CO2 and grown in Ham's F12K medium with 2 mM L-glutamine adjusted to contain 1.5 g/L sodium bicarbonate and supplemented with fetal bovine serum at a final concentration of 10% and 100 μg/mL of streptomycin and 100 U/mL penicillin.
as §1, §2, §3, §4, §5, §6, §7, §8
The assays were performed on an ABI 7900 instrument, according to the manufacturer's instructions.
Within each experiment, the baseline was set in the exponential phase of the amplification curve, and based on the intersection point of the baselines with the amplification curve, a Ct value was assigned by the instrument. […]

Row | Substance | % KD Mouse (STAT1 mouse mRNA) [%] | % KD Human (STAT1 human mRNA) [%]
1 | 25366-DC: STAT1 siNA duplex, human target site 965; modified strands SEQ ID NO: 69 and 70 (chain 1 UGCUUGACAAUAAGAGAAATT; chain 2 UUUCUCUUAUUGUCAAGCAUU; chain 1: DNA at AGT, 2'-fluoro at CU, [invAb] at 5' end, 3' end, backbone not given here; chain 2: sugars from the 5' end rrrfffffmffmffmmmfmmm, backbone not given here) | 86 | 88
2 | 25352-DC: STAT1 siNA duplex, human target site 540; modified strands SEQ ID NO: 41 and 42 (chain 1 GCUGGAUGAUCAAUAUAGUTT; chain 2 ACUAUAUUGAUCAUCCAGCUU; chain 1: DNA at AGT, 2'-fluoro at CU, [invAb] at 5' end, 3' end, backbone not given here; chain 2: sugars from the 5' end rrrmfmffmmffmfffmmfmm, backbone not given here) | 34 | 91
3 | 25360-DC: STAT1 siNA duplex, human target site 1793; modified strands SEQ ID NO: 57 and 58 (chain 1 CCAGGAAUCUGUCCUUCUUTT; chain 2 AAGAAGGACAGAUUCCUGGUU; chain 1: DNA at AGT, 2'-fluoro at CU, [invAb] at 5' end, 3' end, backbone not given here; chain 2: sugars from the 5' end rrrmmmmmfmmmfffffmmmm, backbone not given here) | 73 | 90
4 | 25361-DC: STAT1 siNA duplex, human target site 1104; modified strands SEQ ID NO: 59 and 60 (chain 1 GCCCAAUGCUUGCUUGGAUTT; chain 2 AUCCAAGCAAGCAUUGGGCUU; chain 1: DNA at AGT, 2'-fluoro at CU, [invAb] at 5' end, 3' end, backbone not given here; chain 2: sugars from the 5' end rrrfmmmfmmmfmffmmmfmm, backbone not given here) | 35 | 92
5 | 25371-DC: STAT1 siNA duplex, human target site 432; modified strands SEQ ID NO: 79 and 80 (chain 1 CAUGGAAAUCAGACAGUACTT; chain 2 GUACUGUCUGAUUUCCAUGUU; chain 1: DNA at AGT, 2'-fluoro at CU, [invAb] at 5' end, 3' end, backbone not given here; chain 2: sugars from the 5' end rrrffmfffmmfffffmfmmm, backbone not given here) | 85 | 89
6 | 25358-DC: STAT1 siNA duplex, human target site 1020; modified strands SEQ ID NO: 53 and 54 (chain 1 CACUGAACUUACCCAGAAUTT; chain 2 AUUCUGGGUAAGUUCAGUGUU; chain 1: DNA at AGT, 2'-fluoro at CU, [invAb] at 5' end, 3' end, backbone not given here; chain 2: sugars from the 5' end rrrffmmmfmmmfffmmfmmm, backbone not given here) | 17 | 79
7 | 25357-DC: STAT1 siNA duplex, human target site 2285; modified strands SEQ ID NO: 51 and 52 (chain 1 CUGACAUCAUUCGCAAUUATT; chain 2 UAAUUGCGAAUGAUGUCAGUU; chain 1: DNA at AGT, 2'-fluoro at CU, [invAb] at 5' end, 3' end, backbone not given here; chain 2: sugars from the 5' end rrrffmfmmmfmmfmffmmmm, backbone not given here) | 29 | 93
8 | 25370-DC: STAT1 siNA duplex, human target site 785; modified strands SEQ ID NO: 77 and 78 (chain 1 AAGUCAGAAAUGUGAAGGATT; chain 2 UCCUUCACAUUUCUGACUUUU; chain 1: DNA at AGT, 2'-fluoro at CU, [invAb] at 5' end, 3' end, backbone not given here; chain 2: sugars from the 5' end rrrfffmfmfffffmmfffmm, backbone not given here) | 76 | 84
9 | 25373-DC: STAT1 siNA duplex, human target site 2160; modified strands SEQ ID NO: 83 and 84 (chain 1 CAGUGAGAGCUCCCGGGAATT; chain 2 UUCCCGGGAGCUCUCACUGUU; chain 1: DNA at AGT, 2'-fluoro at CU, [invAb] at 5' end, 3' end, backbone not given here; chain 2: sugars from the 5' end rrrffmmmmmfffffmffmmm, backbone not given here) | 24 | 30
10 | 25365-DC: STAT1 siNA duplex, human target site 431; modified strands SEQ ID NO: 67 and 68 (chain 1 CCAUGGAAAUCAGACAGUATT; chain 2 UACUGUCUGAUUUCCAUGGUU; chain 1: DNA at AGT, 2'-fluoro at CU, [invAb] at 5' end, 3' end, backbone not given here; chain 2: sugars from the 5' end rrrfmfffmmfffffmfmmmm, backbone not given here) | 80 | 87
11 | 25355-DC: STAT1 siNA duplex, human target site 1126; modified strands SEQ ID NO: 47 and 48 (chain 1 CUGCAGAACUGGUUCACUATT; chain 2 UAGUGAACCAGUUCUGCAGUU; chain 1: DNA at AGT, 2'-fluoro at CU, [invAb] at 5' end, 3' end, backbone not given here; chain 2: sugars from the 5' end rrrfmmmffmmffffmfmmmm, backbone not given here) | 35 | 90
12 | 25347-DC: STAT1 siNA duplex, human target site 2318; modified strands SEQ ID NO: 31 and 32 (chain 1 CUGAGAAUAUUCCUGAGAATT; chain 2 UUCUCAGGAAUAUUCUCAGUU; chain 1: DNA at AGT, 2'-fluoro at CU, [invAb] at 5' end, 3' end, backbone not given here; chain 2: sugars from the 5' end rrrffmmmmmfmfffffmmmm, backbone not given here) | 57 | 93
13 | 25362-DC: STAT1 siNA duplex, human target site 222; modified strands SEQ ID NO: 61 and 62 (chain 1 CUCGAGAGCUGUCUAGGUUTT; chain 2 AACCUAGACAGCUCUCGAGUU; chain 1: DNA at AGT, 2'-fluoro at CU, [invAb] at 5' end, 3' end, backbone not given here; chain 2: sugars from the 5' end rrrffmmmfmmfffffmmmmm, backbone not given here) | 45 | 87
